Experimental data taken from patent publication US5807837A, “Composition and method for the treatment or prophylaxis of viral infections using modified oligodeoxyribonucleotides” (Sankyo Company, Limited, priority 1993, dated 1998).

Tested on: non-HIV-1 infected MT-4 cells
Test: Cytotoxicity: inhibition of multiplication of non-HIV-1 infected MT-4 cells (MTT method)
Assay type: cell-based
Settings: 6 days culture, 50% inhibition of multiplication
Method: HIV-1 infected MT-4 cells and non-HIV-1 infected MT-4 cells were suspended in serum culture media so that a concentration of […] cells/ml of each was attained. One hundred μl of a solution of stepwise diluted sample compound (dissolved in serum culture media), prepared in advance, was placed in each well of […] microtiter plates. Then, 100 μl of each of the above-mentioned cell suspensions was added to each well of microtiter plates, and their cells were cultured for 6 days in the presence of 5% carbon dioxide gas.
As a control, HIV-1 infected MT-4 cells and non-HIV-1 infected MT-4 cells in which no sample compound was added were cultured in the same manner.
After the cultivation, live cell number was measured based on the MTT(3-(4,5-dimethylthiazole-2-yl)-2,5-diphenyltetrazolium bromide) method (L. M. Green et al., J. Immunol, Methods, 70, 257-268(1984)). Then the cytopathic activity of HIV-1 was measured. With the cytopathic activity of HIV-1 infected MT-4 cells to which no sample compound was added as 100%, and the cytopathic activity of […] MT-4 cells to which no sample compound was added as 0%, the concentration of the specimen which inhibited the cytopathic activity of HIV-1 infected MT-4 cells by 50(IC50) was calculated. The cytotoxicity of the sample compound was determined as that concentration which inhibited the multiplication of non-HIV-1 infected MT-4 cells by 50% (CC50).

## DMT-O-TGGGAG-OH [Example 25]
  CC50: > 100.0 µg/mL

## DMT--O--CGCGG--OH [Example 48]
  CC50: > 100.0 µg/mL

## DMT--O--CGGGAGG--OH [Example 29]
  CC50: > 100.0 µg/mL

## DMT--O--TAGGAGG--OH [Example 71]
  CC50: 37.0 µg/mL

## DMT--O--TGCGAGG--OH [Example 32]
  CC50: > 100.0 µg/mL

## DMT--O--CGGGT--OH [Example 43]
  CC50: 100.0 µg/mL

## DMT--O--TGGGA--OH [Example 27]
  CC50: 95.0 µg/mL

## DMT--O--TTGGGAGG--OH [Example 36]
  CC50: 100.0 µg/mL

## DMT--O--CTGGGAGG--OH [Example 37]
  CC50: > 100.0 µg/mL

## DMT--O--TGGGG--OH [Example 28]
  CC50: > 100.0 µg/mL

## DMT--O--CGGGG--OH [Example 45]
  CC50: > 100.0 µg/mL

## DMT--O--TGmCGAGG--OH [Example 76]
  CC50: > 100.0 µg/mL

## DMT--O--TGGGCGCAG--OH [Example 73]
  CC50: > 100.0 µg/mL

## DMT--O--CCG--OH [Example 74]
  CC50: > 100.0 µg/mL

## DMT--O--TGGGAmGG [Example 79]
  CC50: > 100.0 µg/mL

## DMT--O--TCGGAGG--OH [Example 75]
  CC50: 40.0 µg/mL

## DMT--O--GGGCGGGGC--OH [Example 70]
  CC50: 60.0 µg/mL

## DMT--O--TGGGAGGT--OH [Example 72]
  CC50: > 100.0 µg/mL

## DMT--O--mCGmCGAGG--OH [Example 35]
  CC50: > 100.0 µg/mL

## DMT--O--TGGG--OH [Example 26]
  CC50: 80.0 µg/mL

## DMT--O--TGGGAGA--OH [Example 80]
  CC50: > 100.0 µg/mL

## DMT--O--mCGGGAGG--OH [Example 34]
  CC50: > 100.0 µg/mL

## DMT--O--AATGGGAGG--OH [Example 81]
  CC50: > 100.0 µg/mL

## DMT--O--TGG--OH [Example 78]
  CC50: > 50.0 µg/mL

## DMT--O--TGGGC--OH [Example 58]
  CC50: 50.0 µg/mL

## DMT--O--TTGGAGG--OH [Example 31]
  CC50: 90.0 µg/mL

## DMT--O--GGGGAGG--OH [Example 33]
  CC50: > 100.0 µg/mL

## DMT--O--TGGGT--OH [Example 57]
  CC50: 100.0 µg/mL

## DMT--O--TGGGAGG--OH [Example 30]
  CC50: > 100.0 µg/mL

## DMT--O--GTGGGAGG--OH [Example 77]
  CC50: > 100.0 µg/mL
